What all share (format): functional, cell-based
Conditions in all cases: Homo sapiens

In assay [1] the test system is HepG2. As to the kind of experiment: The cytotoxicity against HepG2 2.2.15 cells expressed as IC50.
The test system of assay [2] is HepG2. Description: compound was tested in vitro for anti HBV activity in HepG2 2.2.15 cells.
Assay [3] deals with HepG2. As to the kind of experiment: The cytotoxicity against 2.2.15 cells expressed as IC50.
The test system of assay [4] is CCRF-CEM. Description: The cytotoxicity against CEM cells.

As a reminder, the IC50 is the point on the concentration scale where inhibition reaches its midpoint. Read a low IC50 as higher potency. What is called EC50 is the concentration giving half of the maximal effect.

Where only a bound is given, the exact number is not on record here.

In the case of `OC[C@@H]1O[C@H](n2cnc3cncnc32)[C@H](F)[C@H]1O`, the concentration for half-maximal inhibition (IC50) in assay [1] was greater than 200 µM. In assay [2], the EC50 is greater than 10 µM.

`OC[C@@H]1O[C@H](n2cnc3c(S)ncnc32)[C@H](F)[C@H]1O`: the IC50 in assay [3] is greater than 200 µM. This molecule gave a 50% effective concentration (EC50) in assay [2] greater than 10 µM.

In assay [1], `CN(C)c1ncnc2c1ncn2[C@H]1O[C@@H](CO)[C@H](O)[C@H]1F` displayed a concentration for half-maximal inhibition (IC50) greater than 200 µM. The molecule further showed an EC50 in assay [2] greater than 10 µM.

For `CNc1ncnc2c1ncn2[C@H]1O[C@@H](CO)[C@H](O)[C@H]1F`, the IC50 in assay [1] was greater than 200 µM. This molecule also came in with an EC50 in assay [2] greater than 10 µM.

In assay [3], `Nc1nc(Cl)nc2c1ncn2[C@@H]1O[C@H](CO)[C@@H](O)[C@H]1F` registered a half-inhibitory concentration (IC50) greater than 200 µM. Also, the concentration giving a half-maximal response (EC50) in assay [2] is greater than 10 µM.

Consider `OC[C@H]1O[C@@H](n2cnc3c(O)ncnc32)[C@H](F)[C@@H]1O`, for which the figures for the IC50 in assay [3] and in assay [4] were greater than 200 µM and greater than 100 µM, respectively. For the same molecule, in assay [2], a half-maximal response (EC50) required 8 µM.

Regarding `Nc1nc(N)c2ncn([C@@H]3O[C@H](CO)[C@@H](O)[C@H]3F)c2n1`, the concentration for half-maximal inhibition (IC50) in assay [3] is greater than 180 µM. The EC50 in assay [2] is greater than 10 µM.

In assay [1], `OC[C@H]1O[C@@H](n2cnc3c(NC4CC4)ncnc32)[C@H](F)[C@@H]1O` came in with a concentration for half-maximal inhibition (IC50) greater than 200 µM. In assay [2], this molecule displayed an EC50 greater than 10 µM.

On to `Nc1ncnc2c1ncn2[C@@H]1O[C@H](CO)[C@@H](O)[C@H]1F` [2'-BETA-FLUORO-2',3'-DEOXYADENOSINE], for which the figures for the IC50 in assay [1] and in assay [4] were greater than 200 µM and 90 µM, respectively. In assay [2], the response was half-maximal at 1.5 µM (EC50).

With `Nc1nc(O)c2ncn([C@@H]3O[C@H](CO)[C@@H](O)[C@@H]3F)c2n1` [F-ARAG], the half-maximal inhibitory concentration (IC50) was greater than 200 µM in assay [3] and greater than 100 µM in assay [4]. The 50% effective concentration (EC50) in assay [2] is greater than 10 µM.

For the origin of these results see ChEMBL document CHEMBL1130211, “Synthesis and anti-hepatitis B virus activity of 9-(2-deoxy-2-fluoro-beta-L-arabinofuranosyl) purine nucleosides” (J Med Chem, 1997).
